From a melting point compilation (Tetko et al.; mined from patent text by program, amines drawn as free bases though some values may be those of a salt)

Row | SMILES | melting point [°C]
1 | CC(=O)OCC1OC(n2cnc3c(N)ncnc32)CC1O (centres undefined) | 150 to 152
2 | O=[N+]([O-])c1cccn2nc(SCc3ccccc3)nc12 | 125 to 126
3 | COc1ccc(I)c(CC(=O)N(C)C)c1 | 86 to 89
4 | COc1cc(C)c(C(=O)CCCCCCCCCCCCCCCCCCCCC(=O)O)c(O)c1OC | 103 to 150
5 | CCC1(CC)C(=O)Nc2ccccc21 | 156 to 159
6 | CN(Cc1coc(C=Cc2ccc(C(F)(F)F)cc2)n1)c1ccc(OCCCn2ccnn2)cc1 | 137 to 138
7 | COc1cc2ccc(Br)cc2cc1C12CC3CC(CC(C3)C1)C2 | 164 to 168
8 | N#CCCCNC(=O)c1n[nH]cc1NC(=O)c1ccccn1 | 231 to 233
9 | CCNc1nc2ccc(CCc3nc4cc(C)ccn4c3Br)cc2o1 | 149 to 153
10 | Cc1nc2cc(S(=O)(=O)n3c(CCCC(=O)O)cc4nc(Cl)ccc43)ccc2s1 | 173
11 | Cc1ccc(-n2c(=O)[nH]c3ccccc3c2=O)cc1 | 267
12 | Oc1c(CCl)cc(F)cc1CCl | 70
13 | COC(=O)[C@@H](NC(=O)Nc1n[nH]c(=S)s1)c1ccccc1 | 137 to 139
14 | OCCc1nccn1CCCCc1ccc(OCc2coc(/C=C/c3ccc(Cl)cc3)n2)cc1 | 127 to 128
15 | O=C(O)c1ccc(-c2ccoc2)s1 | 147
16 | COC(=O)NCCCCn1c(=O)c2c(C)nc3cccc1n32 | 175 to 176
17 | CC(C)(C)OC(=O)NCCNC(=O)c1ncsc1-c1ccccc1 | 139 to 140
18 | CCOC(=O)COc1cc(-c2ccccc2)nc2ccccc12 | 96
19 | CC(=O)OCC1OC(n2c(Cl)nc3c(Cl)cc(Cl)cc32)C(OC(C)=O)C1OC(C)=O (centres undefined) | 165 to 167
20 | CC(C)(O)c1ccc(-c2ccc(=O)n(Cc3ccc(Cl)cc3)c2)cc1 | 157
21 | COc1ccc(C2Nc3cc(OC)c(OC)cc3C(C)=[N+]2[O-])cc1 (centres undefined) | 161 to 163

Row | SMILES | melting point [°C]
22 | Cc1c(Nc2c(C#N)cnc3sc(C(=O)O)cc23)ccc2[nH]ccc12 | 287
23 | O=S(=O)(NC[C@@H](CO)NC(c1ccccc1)(c1ccccc1)c1ccccc1)c1ccc(Oc2ccccc2)cc1 | 67 to 70
24 | CCCCCCCCCCCc1cc2ccc(C(=O)OC)cc2[nH]1 | 84 to 86
25 | Cc1nc(-c2cnc(Cc3ccccc3)o2)sc1C(=O)NCc1ccccc1 | 141 to 142
26 | Cc1cc2c(s1)CCCC(=O)N2 | 133 to 135
27 | NS(=O)(=O)c1ccc(-c2c(-c3ccccc3)noc2COc2ccc(C(=O)O)cc2)cc1 | 206 to 208
28 | CC(C)(C)c1cc(CCC(=O)ON(Cc2ccccc2)Cc2ccccc2)cc(C(C)(C)C)c1O | 93 to 95.5
29 | CCOC(=O)C(CO)c1ccc(OCC)cc1 (centres undefined) | 35 to 36
30 | C=CC(=O)OC(C)OC(=O)c1c2ccccc2cc2ccccc12 (centres undefined) | 66 to 68
31 | NS(=O)(=O)c1cccc(C(O)CO)c1 (centres undefined) | 170 to 171
32 | C[C@]12CCC(=O)C=C1CCc1cc(Cl)ccc12 | 94 to 96
33 | CC1(CC(=O)O)OCCc2c1[nH]c1ccccc21 (centres undefined) | 87 to 90
34 | C=CCNc1nc(C)c(C(=O)c2ccc(Cl)c([N+](=O)[O-])c2)s1 | 154 to 156
35 | COCCOC1CC(c2ccccc2)Oc2c1ccc1c2nc(C)n1C (centres undefined) | 148 to 149
36 | CCCCCCCCCCSC(=S)N1Cc2[nH]c3ccccc3c2CC1CO (centres undefined) | 115 to 118
37 | O=C(O)CCCOc1ccc(-c2ccc(-c3c(Cc4ccccc4)sc4ccccc34)cc2)cc1Br | 135 to 137
38 | COCCNC(=O)Nc1c(C)c(C)c2c(c1C)C(c1ccc(C(C)C)cc1)CO2 (centres undefined) | 172 to 173
39 | CNc1nc(-c2cccc(N)c2)cs1 | 118 to 121
40 | Cc1nnc(-c2ccnc(NCc3cccnc3)c2)o1 | 139 to 140
41 | CC(C)(C)C(=O)Oc1ccc(C(O)c2ccc(OC(=O)C(C)(C)C)cc2)cc1 | 148 to 152
42 | CCOC(=O)C12CCC(=O)N1CC(=O)N2 (centres undefined) | 116

Row | SMILES | melting point [°C]
43 | CCCCOC(=O)c1cn(CC)c2nc(N3CCNCC3)c(F)cc2c1=O | 119 to 120
44 | CC1CCc2ccc(Cl)c3c(=O)c(C(=O)O)cn1c23 (centres undefined) | 220 to 222
45 | CC(=O)Nc1nc2c(s1)-c1nc(N3CCCC(CNC(=O)OC(C)(C)C)C3)ncc1CC2 (centres undefined) | 250 to 255
46 | COc1ccc(Cn2cnc3c(-c4ccco4)nc(OC(C)C)nc32)cc1 | 145 to 146
47 | N#Cc1ccc2oc(CCCc3cc4cc(C#N)ccc4o3)cc2c1 | 153 to 154
48 | CCOC(=O)c1ccc(N(C(=O)OCC)C(=O)c2ccc(C(=O)C(C)(C)C)cc2)cc1 | 84 to 86
49 | CCOC(C)OC1CCC2(C)C3=C(CCC2C1(C)C)C1=CCC(C(C)OCc2ccccc2)C1(C)CC3 (centres undefined) | 138 to 143
50 | CN1CCN(c2nc(-c3ccccc3Cl)c3cc([N+](=O)[O-])ccc3n2)CC1 | 204
51 | COC(=O)c1sc(-c2ccccc2)cc1N=NN(C)C | 92 to 94
52 | Cc1ccccc1-c1ccc(C(=O)N2Cc3ccc(C(=O)NCCc4ccc5c(c4)OCO5)n3Cc3ccccc32)cc1C | 154 to 157
53 | COC(=O)c1sc2ccc(SC)cc2c1N(C)C | 63 to 66
54 | CCOC(C)n1c(Cl)c(Cl)c(C#N)c1-c1ccc(Cl)c(Cl)c1 (centres undefined) | 124 to 126
55 | CC1=C(C(=O)OC(C)C)C(c2cccc([N+](=O)[O-])c2)n2c(n[nH]c2=O)N1 (centres undefined) | 225 to 227
56 | CC(C)n1nc(C#C[Si](C)(C)C)ccc1=O | 61 to 62.5
57 | Oc1ccc2c(c1)COc1c-2cc2ccc(O)cc2c1-c1ccco1 | 158 to 163
58 | Cc1cc2n(c(=O)n1)C(C)N=C2 (centres undefined) | 231 to 232
59 | Nc1nc(Cl)c(NC=O)c(N[C@H]2C=C[C@@H](CO)C2)n1 | 174 to 176
60 | Cc1c(-c2ccccc2)sc2c(Cl)c(Cl)c(OCC(=O)O)cc12 | 232 to 233
61 | CC(C)n1nc(-c2c(OCCN(C)C)nc(N)nc2-c2ccccc2)ccc1=O | 130 to 132
62 | O=C(O)c1cn(CCF)c2c(F)c(F)c(F)cc2c1=O | 208 to 210

Continued, values first:

Row | melting point [°C] | SMILES
63 | 179 | CC(=O)c1ccccc1NC(C#N)c1c(Cl)cccc1Cl (centres undefined)
64 | 181 to 183 | Cc1oc(-c2ccccc2)nc1COc1ccc(CC(=O)O)cc1
65 | 210 to 212 | NS(=O)(=O)c1ccc(NN=C2C(=O)Nc3ccc(C(=O)NCCN4CCOCC4)cc32)cc1
66 | 250 to 252 | C/C(=C\c1ccc(C(=O)O)cc1)c1ccc2c(c1)C(C)(C)C(O)CC2(C)C (centres undefined)
67 | 184 | Cc1ccc(S(=O)(=O)OCC2CCN(c3nc4ccccc4s3)CC2)cc1
68 | 151 to 152 | CCCCc1ccc(NC(=O)c2ccc([N+](=O)[O-])cc2)cc1
69 | 88 to 90 | COC(=O)C(C)(C)Oc1ccc(C(=O)CN2CCN(c3ccncc3)CC2)cc1
70 | 206 to 207 | CC(C)(NC(=O)C1=C(C(=O)Nc2cc(OC3CCCC3)c(Cl)cc2F)CCCC1)c1ccccc1
71 | 191 to 192 | NC(=O)c1ccc(-c2cccc3cc(COc4cccc(C(F)(F)F)c4)sc23)cc1
72 | 137 to 138 | Cc1ccc(CN2CCc3ccc(C(=O)CCC(=O)N4CCC(c5ccc(Cl)cc5)CC4)cc3CC2)cc1
73 | 256 to 259 | O=c1c2c[nH]c3c(c-2nn1-c1ccc(Cl)cc1)CN(CCc1ccccc1)CC3
74 | 88 to 89 | COC(=O)CC(C(=O)c1cccc(OCc2ccccc2)c1)c1ccccc1 (racemic)
75 | 135 to 143 | C[C@@H](N(CCNC(=O)OC(C)(C)C)C(=O)c1ccc(C(F)(F)F)cc1)[C@](O)(Cn1cncn1)c1ccc(F)cc1F (relative stereo)
76 | 242 | CC(=O)Nc1ccc(O)c(CN2CCC(NC(=O)c3ccccc3)CC2)c1
77 | 208 to 210 | CN1C2CCCC1CC(NC(=O)c1cccc3nc(-c4ccccc4)oc13)C2 (centres undefined)
78 | 108 to 110 | CC(=O)Nc1cc(C(C)=O)ccc1OCCCN1CCC(c2noc3cc(F)ccc23)CC1
79 | 120 to 121 | CC(=O)NC(C)c1ccc(CN2CCN(c3ccccn3)CC2)cc1 (centres undefined)
80 | 218 to 220 | CCCOc1ccc(NC(=O)N2CCN(c3ncnc4cc(OC)c(OC)cc34)CC2)cc1
81 | 142 | Nc1ccc(N(CCO)C(=O)OCc2ccccc2)c(O)c1

Row | melting point [°C] | SMILES
82 | 84 | O=S(=O)(c1ccc(Cl)cc1)N1CCCC1c1cccs1 (racemic)
83 | 134 to 135 | OC1(c2ccc(Cl)cc2)CCN(CCCOc2ccc(F)cc2)CC1
84 | 139 to 140 | O=C(C=Cc1ccc(C(F)(F)F)cc1)N1CCCCC1CO (centres undefined)
85 | 204 to 205 | O=C(NCCc1ccc([N+](=O)[O-])cc1)Nc1ccc(Nc2ccccc2)cc1
86 | 95 to 96 | O=C(c1ccccc1F)C1CCN(C(=O)Oc2ccccc2)CC1
87 | 76.5 to 80 | CC(C)(C)OC(=O)NC1CCN(CC23CC(c4ccccc42)c2ccc(Cl)cc23)CC1 (centres undefined)
88 | 212 to 215 | CC(C)(C)OC(=O)N1CCn2c(c(C(=O)O)c(C#N)c2-c2ccccc2)C1
89 | 130 to 132 | CCOC(=O)C1=C(C)NC(=S)N(C(=O)c2ccc(OC)cc2)C1c1cccc([N+](=O)[O-])c1 (centres undefined)
90 | 190 to 191 | COc1ccc(C=Cc2oc3ccc(C#N)cc3c2C(C)=O)cc1
91 | 137 to 138 | CC(C)(Cc1ccc(Cl)cc1)C(C#N)C(=O)O (centres undefined)
92 | 114 to 116 | CC(NC(=O)C(NC(=O)OCC1c2ccccc2-c2ccccc21)C(Cc1ccccc1)C(=O)O)C(=O)O (centres undefined)
93 | 135 to 138 | N#Cc1cccc(NC(=O)C(=O)N2CCC(Cc3ccc(F)cc3)CC2)c1
94 | 95 to 97 | O=C1CCCN1c1ccc(F)cc1F
95 | 140 to 142 | Cc1cccc2c1nc(COc1ccc(Cl)cc1)n2CCC(C)C(=O)Cl (centres undefined)
96 | 183 | O=C(O)/C=C/c1ccc(OCCN2CCCC2)cc1
97 | 89 to 98 | N#Cc1ccc(OCc2ccsc2)cc1OC(C(=O)O)c1ccccc1Br (racemic)
98 | > 220 | Cc1c(=O)n(Cc2ccc(C#N)cc2)c(=O)n2cc(C(=O)NCc3ccc(F)cc3)sc12
99 | 111 to 120 | COc1ccc(CCN2C(=O)OC3(CCN(Cc4ccccc4)CC3)C2(C)O)cc1OC (centres undefined)
